SMILES | melting point [°C]
Cc1ccc(S(=O)(=O)CCCC(=O)c2ccc(F)cc2)cc1 | 114 to 116
COc1cccc2c(Cl)c(CCCCl)cnc12 | 86 to 89
Cc1c(-c2ccc3c(c2)C2(CCCCC2)C(=O)N3)sc2ccc(Cl)cc12 | 256 to 258
CCCCCCCCCCCCCCOc1cc(O)cc(C(=O)OC)c1 | 92 to 94
CCCN(CCCNc1ncc(Cc2ccc(C)nc2)c(=O)[nH]1)c1ccccn1 | 83 to 90
CC(C)(C)OC(=O)C=Cc1ccc(C(=O)C(=C(F)F)c2ccccc2)cc1 | 88 to 94
Cc1cc2c3c(c1)c1c(n3C(c3ccccc3)CO2)CCCC1=O (stereo not given) | 171
O=Cc1ccc(OS(=O)(=O)C(F)(F)F)cc1Cl | 125 to 127
COC(=O)c1nc(-c2cc(F)c([Si](C)(C)C)cc2F)c(F)c(N)c1OC | 137 to 139
CCOCc1nc2c(N)nc3ccc(OCc4ccccc4)cc3c2n1CCCCNS(C)(=O)=O | 182 to 185
COc1ccc(/C=C/C(=O)/C=C/C(=O)O)c(OC)c1 | 195 to 200
O=C(Nc1n[nH]c(=S)s1)N[C@@H](Cc1ccccc1)C(=O)N1CCN(c2ccccn2)CC1 | 220 to 222
CC(C)(C)OC(=O)N1CCC[C@H]1COc1cccc2c1ccn2S(=O)(=O)c1ccccc1 | 48 to 50
c1cnc2ccc(Cn3nnc4ccc(-c5ccc6[nH]ccc6c5)nc43)cc2c1 | 120 to 122
O=CCN1CCc2ccc(Br)cc2C1=O | 95 to 96
OCCc1nccn1CCCc1cccc(O)c1 | 111 to 113
CCCCCCCCOc1ccc(-n2nc3ccc(C(F)(F)F)cc3n2)c(O)c1 | 79 to 81
O=[N+]([O-])c1ccc(F)c(-c2cccnc2)c1F | 68 to 70
CC(=O)OCC1OC(OCC(C)=CCN2C(=O)c3ccccc3C2=O)C(OC(C)=O)C(OC(C)=O)C1OC(C)=O (stereo not given) | 104 to 105
CCC(Cc1ccc(OCCN2CCOCC2)cc1)(C(=O)NO)S(=O)(=O)c1ccc(OC)cc1 (stereo not given) | 51
O=C1CCC(N2Cc3c(OCc4ccccn4)cccc3C2=O)C(=O)N1 (stereo not given) | 235 to 237
S=C(Nc1ccccc1Br)c1ccccc1 | 157 to 158
CCOC(=O)C(=O)CC(=O)C(Br)C(Br)c1ccccc1OC (stereo not given) | 113 to 115
CCCOc1ccccc1-c1nc(C=O)c[nH]1 | 104 to 105

SMILES | melting point [°C]
CC(=O)O[C@H]1C[C@@H](n2cc(C)c(=O)[nH]c2=O)[C@H](O)[C@@H]1O (racemic) | 58 to 61
CCCCCC(=O)C=Cc1ccc(Cl)cc1 | 44 to 47
CN(C)Cc1ccc(-c2nc(C(=O)Nc3nccs3)c(-c3ccc(Cl)cc3)[nH]2)cc1 | 143 to 145
CCCCc1nc2c(N)nc(C)c(C)c2n1NC1CCCCC1 | 160 to 162
COc1ccc(-c2[nH]nc3c2C(=O)c2c(NC(=O)Cc4ccc(Cl)cc4Cl)cccc2-3)cc1 | 286
OC1c2cc(OCc3ccc4ccccc4n3)ccc2OCC1Oc1cccnc1 (stereo not given) | 126 to 128
Cn1cccc1C(=O)Nc1nc(-c2cccc(C#N)c2)c(-n2cncn2)s1 | 245 to 247
Cc1csn(-c2ccc(Cl)c(Cl)c2)c1=O | 160 to 161
COc1ccc(Nc2nc(-c3ccccc3)c(C(=O)c3sc(Nc4ccc(OC)cc4)nc3-c3ccccc3)s2)cc1 | > 285
Cn1c(COc2ccc(CC3SC(=O)N(C(c4ccccc4)(c4ccccc4)c4ccccc4)C3=O)cc2)nc2cc(Br)cnc21 (stereo not given) | 97 to 100
CCc1cc2c(cc1C#Cc1ccc(C)cc1)C(C)(C)CCC2(C)C | 72 to 73
CCCc1c(OCCCCCOc2cc3c(cc2C(C)=O)CC[C@@H](C(=O)O)O3)ccc(C(C)=O)c1O | 94 to 97.5
O=[N+]([O-])c1ccc(OCCc2ccc(CO)cn2)cc1 | 144 to 145
CN1C(=O)CN=C(c2ccccc2)c2c1cc(Cl)c(N)c2Cl | 228
COc1ccc(C2CC(=O)C(C(=O)O)=CN2C2CC2)cc1 (stereo not given) | 137 to 139
CCCCC(=O)NNC(=O)c1ccncc1 | 162
CC(O)c1ccc(Cc2c(Cl)cc(N3N=CCNC3=O)cc2Cl)cc1 (stereo not given) | 119 to 120
CCOC(=O)CCCCn1c(=O)[nH]c2ccc(OCOCCOC)cc2c1=O | 105 to 107
Cc1c(OCC(F)(F)F)ccnc1CS(=O)c1nc2cc(-n3ccnc3)c(F)cc2[nH]1 (stereo not given) | 234 to 235
CC(=O)Oc1ccc(Cn2c(-c3ccccc3)nc(Cl)c2CC(=O)O)cc1C | 200 to 203
NC(=O)CC1(c2ccccc2)C(=O)Nc2ccc(Cl)cc21 (stereo not given) | 247 to 248
Cc1cc(C)c(C)c(COc2cccc(-c3c(-c4ccccc4)coc3C(=O)NNC(=O)c3ccc(O)c([N+](=O)[O-])c3)c2)c1C | 130 to 132
CN1CCc2c(c3cc(Cl)ccc3n2CCC#N)C1 | 127 to 129
NS(=O)(=O)c1cccc(-c2cc(-c3nc(-c4ccc(C(F)(F)F)nc4)cc(C(F)F)n3)ccn2)c1 | 264

SMILES | melting point [°C]
N[C@@]1(C(=O)O)C[C@H](NC(=O)Nc2cccc3ccccc23)[C@H]2[C@H](C(=O)O)[C@H]21 (relative stereo) | > 275
Cn1c(=O)c(N)c(N)n(-c2ccc(Cl)cc2Cl)c1=O | 170 to 172
CSc1ccc(-c2cc(C(C)C)nc(N)n2)c2ccccc12 | 139 to 140
CCCCNC(=O)NS(=O)(=O)c1cc2c(cc1OC)OCC(NC(=O)c1cc(Cl)ccc1OC)C2 (stereo not given) | 185 to 186
Fc1cccc2c1OC(CN1CC=C(c3c[nH]c4ccccc34)CC1)CO2 (stereo not given) | 174 to 177
CCOC(=O)c1ccc(NC=CS(=O)(=O)F)cc1 | 110 to 112
COc1cc(Nc2c(C#N)cnc3cc(C#Cc4ccccn4)ccc23)c(Cl)cc1Cl | 238 to 240
Nc1c(Cl)cc(C(O)CNCCCCCCOCCCCc2ccccc2)cc1Cl (stereo not given) | 74 to 76
COc1ccc(C(=O)c2c(-c3ccc(OC)cc3)oc3cc(OC)ccc23)cc1 | 106 to 109
CCOC(=O)C(Cc1cc2cc(C#N)ccc2o1)c1ccc(O)cc1 (stereo not given) | 140 to 142
CCCCc1nc(C(O)C(C)(C)C)c(C#N)n1Cc1ccc(-c2ccccc2-c2nnnn2C(c2ccccc2)(c2ccccc2)c2ccccc2)cc1 (stereo not given) | 134 to 135
N#Cc1ccc(Nc2cccc(I)c2)c(N)c1 | 170 to 172
CCN(CC)C(=O)C(c1ccccc1)n1cnc2[nH]ncc2c1=S (stereo not given) | 143 to 146
CCCCCCOc1ccc(N=C(NC#N)NCCC(C)(C)C)cc1 | 183 to 184
Cc1nc(Nc2ccccc2)sc1-c1ccncc1 | 168 to 170
Nc1cccc(Oc2cccc(Oc3cccc(N)c3)n2)c1 | 118 to 120
COc1cc(N)c(Cl)cc1C(=O)NCC1CCN(CCCCCC(=O)c2ccc(Cl)c(Cl)c2)CC1 | 203 to 205
COc1cc(OC)cc(C2CN3CCC2CC3)c1 (stereo not given) | 142 to 145
COC(=O)C1=C(C)NC(c2ncsc2Cl)=NC1c1ccc(F)cc1 (stereo not given) | 118 to 122
CCCN(CCC)c1ccc(NC(=O)N(C[C@H]2CC[C@H](CN(C(=O)Nc3ccc(N(CCC)CCC)cc3)C3CCCCC3)CC2)C2CCCCC2)cc1 | 147 to 150
COc1cc2ncc(C#N)c(Nc3ccc(F)c(Cl)c3)c2cc1NC(=O)C=CCN1CCC(O)CC1 | > 215
CC(C)(C)OC(=O)N[C@H](Cc1ccc(C(F)(F)F)cc1)[C@@H](O)c1ccncc1 (racemic) | 198 to 200
C=CCc1cc(C=CC(=O)O)ccc1O | 132 to 133
CN1CCC(Oc2cnccn2)(c2ccccc2)CC1 | 115 to 116

SMILES | melting point [°C]
COc1ccc(S(=O)(=O)N(C(=O)C(F)(F)F)c2ccc(Cl)cc2Cc2c(F)cccc2F)cc1OC | 79.7
Cc1c(-c2c[nH]cc2C#N)cccc1C(F)(F)F | 99 to 100
COc1ccc(-c2c(CBr)c3ccc(OC)cc3oc2=O)c(OC(C)=O)c1 | 132 to 133
Cc1cnc2c(NC(=O)c3c(Cl)cccc3Cl)cccc2c1-n1ccc(=O)cc1 | 280 to 282
CC(=O)Nc1cc(N2CCCC2)c2c(Cl)ccc3c2c1C(=O)N(O)C3=O | 152 to 154
C=CCSc1cn(C)cc(-c2ccccc2)c1=O | 136 to 138
CCOc1nn(-c2ccc(C(F)(F)F)cn2)cc1CCCOc1ccc(CCC(=O)O)cc1OC | 131 to 132
COc1cccc(C(=O)Nc2ccc(N3CCN(CC(N)=O)CC3)cc2)c1-c1ccc(C(C)C)cc1 | 207 to 209
Cn1nc(-c2cnc(N)nc2-c2cccs2)ccc1=O | 270
CC(C)(C)OC(=O)c1ncn2c1c(C(=O)N1CCCC1)cc1ccccc12 | 216 to 218
NOCc1cn(C(c2ccccc2)(c2ccccc2)c2ccccc2)nn1 | 144 to 145
O=C(CCl)C1=NOC(c2ccccc2F)C1 (stereo not given) | 42 to 44
CNC(=O)CCC1CCN(Cc2cnc3cc(NC(=O)c4ccc(-c5ccc(F)cc5)cc4)c(C)cc3c2)CC1 | 207 to 211
O=P(COc1ccc2ccccc2c1-c1c(OCP(=O)(c2ccccc2)c2ccccc2)ccc2ccccc12)(c1ccccc1)c1ccccc1 | 252 to 253
CCCCNS(=O)(=O)NC(=O)OCc1ccc(OCCOC)cc1Oc1ncc(C(F)(F)F)cc1Cl | 164 to 165
O=C(O)COc1cccc2c1CCC(CNC(=O)OC(c1ccccc1)c1ccccc1)C2 (stereo not given) | 160 to 161
Cn1cccc1-c1cc(O)c2ncccc2c1O | 142 to 143
CCCC(C)NC(=O)c1ccc(C(=O)Nc2ccccc2NC(=O)OC(C)(C)C)s1 (stereo not given) | 183
O=c1[nH]nc(-c2ccc(N3CCCCCC3)c([N+](=O)[O-])c2)c2ccccc12 | 187 to 189
O=C(O)c1ccc2sc(Cc3cccnc3)cc2c1 | 246 to 249
O=S(=O)(Nc1cccc(CCOCc2nc(-c3ccc(C(F)(F)F)cc3)sc2Cl)c1)C(F)(F)F | 107 to 109
CCOc1cc(C(=O)O)on1 | 210 to 213
O=C1N(Cc2cccnc2C(F)(F)F)c2ccccc2C12COc1cc3c(cc12)OCCO3 (stereo not given) | 219 to 220

From a melting point compilation (Tetko et al.; mined from patent text by program, amines drawn as free bases though some values may be those of a salt)
